Here are results for eleven molecules from PubChem BioAssay (NCI).

Several values for one entry are separate records, joined by “and”; a condition that tells them apart may be missing. Equal entries are not always repeated.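 Where inhibition never reached the appropriate level, the endpoint shown equals the highest concentration tested. Otherwise, values were interpolated linearly from a five-concentration, 48-hour dose response in 96-well plates. GI50 = concentration required for 50% inhibition of growth. Definition used: TGI = concentration required for complete inhibition of growth.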

What all share (test): NCI-60 cell line screen, 48 h
The test system of assay [1] is SK-OV-3 ovarian.
Assay [2] has as its system OVCAR-8 ovarian.
Assay [3] concerns HT29 colon.
The subject of assay [4] is HL-60(TB) leukemia.
The test system of assay [5] is OVCAR-4 ovarian.
In assay [6] the test system is COLO 205 colon.
Assay [7] concerns MALME-3M melanoma.
Assay [8] relates to K-562 leukemia.
Assay [9] concerns NCI/ADR-RES ovarian.
Assay [10] has as its system NCI-H522 lung.

For the molecule `O=C(O)C1CC(O)CN1` (configuration not stated), the TGI in assay [1], in [2], in assay [3], in [4], in assay [5] and in assay [6] was > 100 µM throughout. In addition, the TGI in [7], in assay [8] and in assay [9] was > 100 µM in each case.

In the case of `N#CC1CCCCCCCCCCC(=O)N(CCCl)C1=O` (configuration not stated), the TGI in [1], in assay [2], in assay [3], in assay [10], in [4] and in assay [5] was > 100 µM throughout. Moreover, the TGI in assay [6], in assay [7] and in assay [8] was > 100 µM throughout.

Consider `O=C1C(=Cc2c(O)cc(O)cc2O)C(=O)c2ccccc21`, for which the TGI in assay [1] is > 100 µM; in [2], > 59.7 µM; in assay [3], > 56.4 µM; in assay [10] it was > 60.3 µM; in assay [4], 43.5 µM; in assay [5], > 72.7 µM. The TGI in assay [6] was > 56 µM; in assay [7], > 59.3 µM; in assay [8] it was > 93.2 µM.

With `CC(=O)OCC1OC(n2c(-c3ccc(C)cc3)cc(-c3ccccc3)c(C#N)c2=O)C(OC(C)=O)C(OC(C)=O)C1OC(C)=O` (configuration not stated), the TGI in assay [1], in assay [2], in assay [3], in assay [10], in [4] and in [5] was > 100 µM throughout. Besides, the TGI in assay [6], in assay [7] and in [8] was > 100 µM each time.

Regarding `CC(=O)C1=C(O)CC2CC3c4[nH]c5ccccc5c4CCN3CC2C1` (configuration not stated), the TGI in assay [1], in assay [2], in assay [3], in assay [10], in assay [4] and in assay [5] was > 100 µM throughout. Besides, the TGI in assay [6], in assay [7] and in [8] was > 100 µM each time.

Consider `COc1cc(C2CC(c3ccc(Nc4ccnc5cc(Cl)ccc45)cc3)=NN2c2ccc(Cl)cc2)cc(OC)c1OC` (configuration not stated), for which the GI50 in assay [1] was 3.26 µM; in assay [2], 4.19 µM; in assay [3] it was 2.66 µM; in assay [10], 1.85 µM; in assay [4], 4.68 µM; in assay [6], 3.28 µM. The GI50 in assay [7] was > 100 µM; in assay [8], 0.857 µM; in assay [9] it was 1.7 µM. The TGI was > 100 µM in assay [1]; > 100 µM in [2]; > 100 µM in [3]; 50.2 µM in assay [10]; > 100 µM in assay [4]; 31.5 µM in [6]. The TGI in assay [7], in assay [8] and in assay [9] was > 100 µM in each case.

On to `CC(C)=CC1=C2C3=C(C(=O)C4(O)Oc5c(C)c6c7c(c5OC24C)[C@@H](C)CC[C@@H]7[C@@H](C)C[C@H]6C=C(C)C)C(C)CCC3C(C)C1` (some centres not stated), for which the GI50 in assay [1], in assay [2], in [3], in assay [10], in assay [5] and in [6] was > 100 µM in each case. Also, the GI50 in assay [7], in assay [8] and in assay [9] was > 100 µM each time. Further, the TGI in assay [1], in assay [2], in [3], in assay [10], in assay [5] and in [6] was > 100 µM throughout. In addition, the TGI in assay [7], in assay [8] and in assay [9] was > 100 µM throughout.

`CN(C)CCCNC(=O)c1cc(NC(=O)c2cc(NC(=O)CCNS(=O)(=O)c3ccc4c(c3)C(=O)c3ccccc3C4=O)cn2C)cn1C`: the GI50 in assay [1], in [2], in assay [3], in assay [10], in assay [4] and in [6] was > 100 µM each time. For the same molecule, the GI50 in assay [8] and in assay [9] was > 100 µM throughout. The TGI in [1], in [2], in [3], in [10], in [4] and in assay [6] was > 100 µM each time. The TGI in assay [8] and in assay [9] was > 100 µM throughout.

As for `COc1cccc(/C=N/C(/N=C/c2cccc(OC)c2O)c2cccc(OC)c2O)c1O`, the TGI in assay [1] was 78.1 µM; in assay [2], 47.9 µM; in [3], > 100 µM; in [10], 49.2 µM; in [4] it was 68.5 µM; in assay [6], > 100 µM. Also, the TGI in assay [8] was > 100 µM; in [9], 85.2 µM.

For `Cc1cn(-c2cc(NC(=O)c3ccc(C)c(Nc4nccc(-c5cccnc5)n4)c3)cc(C(F)(F)F)c2)cn1`, the GI50 is > 10 µM and 3.91 µM in assay [1]; 4.43 µM and 4.29 µM in assay [2]; 1.7 µM and 1.94 µM in assay [3]; 3.46 µM and 4.18 µM in assay [10]; 5.15 µM and 2.39 µM in assay [5]; 1.58 µM and 1.23 µM in assay [6]. Besides, the GI50 is 1.69 µM and 0.78 µM in assay [7]; 2.15 µM in assay [8]; 5.72 µM and 2.5 µM in [9]. Besides, the TGI in assay [1] was > 10 µM and 11.3 µM; in [2], > 10 µM and 24.8 µM; in [3], > 10 µM and 9.13 µM; in assay [10] it was > 10 µM and 24.4 µM; in assay [5], > 10 µM and 7.32 µM; in [6], 7.11 µM and 5.52 µM. Also, the TGI in assay [7] was 5.04 µM and 4.1 µM; in assay [8], > 10 µM and 1.03 µM; in assay [9], > 10 µM and 16.1 µM.

`C=CCC1C(=O)CC2(C)CC(=O)C(CC=C)C12C` (configuration not stated): the TGI in assay [1], in assay [2], in assay [3], in assay [10], in [4] and in assay [5] was > 100 µM each time. Moreover, the TGI in [6], in [7] and in assay [8] was > 100 µM in each case.
